Experiment [1] concerns murine stomach tissue gene expression profile. Put plainly: Congruence analysis of differentially expressed stomach genes, ENT-01 vs ENT-06. Format: in vivo, mouse. The text has this: Genes that were differentially expressed in response to ENT-01 treatment, as identified in this study, were compared to those that were associated with ENT-06 treatments, respectively. ENT-06 treatment-associated gene expression changes were identified previously. Across all contrasts at the relevant statistical thresholds used to identify significant features, there were ten or less genes that changed in expression upon both treatments (ENT-01 and ENT-06). Note that this included the gene expression changes associated with ageing.
Congruence analysis was performed between the contrasts Specifically, the analysis compared the effects of human- or shark-origin compound analogues on murine stomach tissue gene expression profile as follows: ENT-01 was compared to ENT-06. Scatter plots, upset plots, venn diagrams, hypergeometric tests and Spearman rank correlation tests were employed to assess the level of overlap. […] Whereas the ENT-01 contrasts in this study defined significant genes using a cutoff of greater than four-fold change in expression.
Congruence between these sets of genes was then assessed by comparing ENT-01-affected genes to those of ENT-06. […] The symbol U denotes the universe. Overlap was assessed between ENT-01 vs control (young) (202 genes) and ENT-06 vs untreated (young) (26 genes). 10 genes overlapped between the two sets when not considering direction of change. […] The Spearman rank correlation between the genes in the two sets was −0.1313.
Congruence analysis for: ENT-01 vs ENT-06 (old) was also conducted. […] Overlap was assessed between ENT-01 vs control (old) (383 genes) and ENT-06 vs untreated (old) (55 genes). 1 genes overlapped between the two sets when not considering direction of change. This is no more than would be expected by chance (p=0.5057). The Spearman rank correlation between the genes in the two sets was 0.003217.

For experiment [2], the system named is mouse stomach tissues gene expression. Put plainly: Treatment induced gene expression in mouse stomach tissues, RNA-sequencing, differential expression by fold change (Example 3). Type of experiment: in vivo. As to conditions: for Number of significant features, Down-regulated, fold change threshold 1.3× / Number of significant features, Down-regulated, fold change threshold 2× / Number of significant features, Down-regulated, fold change threshold 4× / Number of significant features, Down-regulated, fold change threshold 8× / Number of significant features, Down-regulated, fold change threshold 16× / Number of significant features, Down-regulated, fold change threshold Any / Number of significant features, Up-regulated, fold change threshold 1.3× / Number of significant features, Up-regulated, fold change threshold 2× / Number of significant features, Up-regulated, fold change threshold 4× / Number of significant features, Up-regulated, fold change threshold 8× / Number of significant features, Up-regulated, fold change threshold 16× / Number of significant features, Up-regulated, fold change threshold Any: stomach.

The test system of experiment [3] is mice with constipation due to overexpression of human αS. As to conditions: orally administered; cited from earlier work.
Experiment [4] concerns mouse stomach RNA transcriptome. Put plainly: RNAseq of stomach transcriptome in old mice after oral squalamine (Example 1). The conditions noted are these: oral dosing 14 days. Type of experiment: in vivo. How it is done: The dosing schedule used to determine the effect of orally administered squalamine and ENT-02 (MSI-1436) on the GI tracts of young and old mice was as follows. Male C57B1/6 mice, aged 20 and 78 weeks, were obtained from Jackson labs. Animals were exposed to 12 hr light dark cycles and provided Teklad standard mouse diet and water ad lib.
Animals were dosed once daily by oral gavage in the morning for a total of 14 days. Animals were fasted 3-4 hours prior to dosing and 1 hour following. The test article was dissolved in 0.5% hydroxypropylcellulose in water. On day 15 the animals were euthanized by C02 asphyxiation, necropsied, and tissues prepared for histology and RNAseq analysis.
The GI tracts of the animals were sectioned into stomach, duodenum, jejunum, ileum, caecum, colon, and rectum. The tissues were then sent for histology, and the transcriptomes analyzed by RNAseq.

For experiment [5], the target named is sodium-hydrogen exchanger (“NHE-3”) (Oryctolagus cuniculus, UniProt P26432). The conditions noted are these: Akhter, Nath et al. 1999; cited from earlier work.
Where [6] appears, read: Old vs young mice, both treated.
Setting [7] is: treatment vs control (old mice).
[8] abbreviates: treatment vs control (young mice).
The mark [9] stands for this setting: cutoff greater than four-fold change in expression.

The text below walks through data of US20220372066A1, “HUMAN SQUALAMINE DERIVATIVES (ENT-06), RELATED COMPOSITIONS COMPRISING THE SAME, AND METHOD OF USING THE SAME” (Enterin, Inc., priority 2019, published 2022).

Sequence of sodium-hydrogen exchanger (“NHE-3”) (P26432 30-832): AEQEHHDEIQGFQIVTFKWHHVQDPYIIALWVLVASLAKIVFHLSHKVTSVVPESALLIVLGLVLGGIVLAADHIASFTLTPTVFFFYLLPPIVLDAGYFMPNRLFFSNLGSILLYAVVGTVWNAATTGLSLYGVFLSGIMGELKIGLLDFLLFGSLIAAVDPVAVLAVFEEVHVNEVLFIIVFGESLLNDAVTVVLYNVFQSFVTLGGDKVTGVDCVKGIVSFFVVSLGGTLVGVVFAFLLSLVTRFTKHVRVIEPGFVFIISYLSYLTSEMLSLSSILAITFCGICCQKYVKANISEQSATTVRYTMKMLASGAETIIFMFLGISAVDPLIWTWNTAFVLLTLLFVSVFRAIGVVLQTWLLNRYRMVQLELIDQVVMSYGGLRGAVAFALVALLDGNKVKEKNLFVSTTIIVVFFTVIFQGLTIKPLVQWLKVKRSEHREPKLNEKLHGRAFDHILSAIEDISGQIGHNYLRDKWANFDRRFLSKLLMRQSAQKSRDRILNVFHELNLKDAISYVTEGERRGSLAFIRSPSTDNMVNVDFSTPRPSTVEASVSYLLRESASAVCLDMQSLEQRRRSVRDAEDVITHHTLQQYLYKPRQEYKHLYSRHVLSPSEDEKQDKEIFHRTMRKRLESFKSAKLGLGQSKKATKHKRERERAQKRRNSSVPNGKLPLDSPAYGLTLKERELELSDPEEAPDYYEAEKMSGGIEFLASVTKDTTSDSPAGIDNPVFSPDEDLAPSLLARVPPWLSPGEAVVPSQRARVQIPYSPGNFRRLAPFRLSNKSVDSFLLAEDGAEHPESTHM

With `C[C@H](CCC[C@@H](C)[C@H]1CCC2C3C(CC[C@@]21C)[C@@]1(C)CC[C@H](NCCCNCCCCN)C[C@@H]1C[C@H]3O)C(=O)O` (single isomer, unassigned) [ENT-06, 3-β-Spermidino-7α-hydroxy-5α-cholestanoic acid], in experiment [1] (old mice), the “Spearman rank correlation between the genes in the ENT-01 and ENT-06 sets” value was 0.003217; the “overlap of genes down-regulated in ageing and up-regulated in treatment, ENT-01 vs ENT-06” value is “did not overlap”. Moreover, in experiment [1] (old mice, p=0.5057), the “genes overlapping with ENT-01 vs control (old) set, not considering direction of change” value is on record as 1 genes. Also, in experiment [1] (threshold FDR-adjusted P<0.05), the “number of significant genes, treatment vs untreated (old)” value came to 55 genes and the “number of significant genes, treatment vs untreated (young)” value is 26 genes. Moreover, the “genes overlapping with ENT-01 vs control (young) set, not considering direction of change” value in experiment [1] (young mice, p=1.721e−16) is recorded as 10 genes. Besides, in experiment [1] (young mice, p=5.678e−57), the “Spearman rank correlation between the genes in the ENT-01 and ENT-06 sets” value is reported as −0.1313.
With `CC(C)[C@@H](CC[C@@H](C)[C@H]1CC[C@H]2[C@@H]3[C@H](O)C[C@H]4C[C@@H](NCCCNCCCCNCCCN)CC[C@]4(C)[C@H]3CC[C@]12C)OS(=O)(=O)O` (single isomer, unassigned) [ENT-02 (MSI-1436), trodusquemine], in experiment [2] (setting [6]), the “Number of significant features, Down-regulated, fold change threshold 1.3×” value was 1986; the “Number of significant features, Down-regulated, fold change threshold 2×” value was found to be 314; the “Number of significant features, Down-regulated, fold change threshold 4×” value is 63; the “Number of significant features, Down-regulated, fold change threshold 8×” value turned out to be 8. In experiment [2] (setting [6]), the “Number of significant features, Down-regulated, fold change threshold 16×” value is on record as 4; the “Number of significant features, Down-regulated, fold change threshold Any” value came out at 7344; the “Number of significant features, Up-regulated, fold change threshold 1.3×” value worked out at 2644; the “Number of significant features, Up-regulated, fold change threshold 2×” value came out at 676. In experiment [2] (setting [6]), the “Number of significant features, Up-regulated, fold change threshold 4×” value came to 190; the “Number of significant features, Up-regulated, fold change threshold 8×” value is 78; the “Number of significant features, Up-regulated, fold change threshold 16×” value is 39; the “Number of significant features, Up-regulated, fold change threshold Any” value worked out at 7669. For the same molecule, in experiment [2] (setting [7]), the “Number of significant features, Down-regulated, fold change threshold 1.3×” value worked out at 1395; the “Number of significant features, Down-regulated, fold change threshold 2×” value is 203; the “Number of significant features, Down-regulated, fold change threshold 4×” value was determined as 38; the “Number of significant features, Down-regulated, fold change threshold 8×” value is given as 7. In addition, in experiment [2] (setting [7]), the “Number of significant features, Down-regulated, fold change threshold 16×” value amounted to 1; the “Number of significant features, Down-regulated, fold change threshold Any” value worked out at 7597; the “Number of significant features, Up-regulated, fold change threshold 1.3×” value stood at 2109; the “Number of significant features, Up-regulated, fold change threshold 2×” value came to 657. For the same molecule, in experiment [2] (setting [7]), the “Number of significant features, Up-regulated, fold change threshold 4×” value amounted to 298; the “Number of significant features, Up-regulated, fold change threshold 8×” value is 139; the “Number of significant features, Up-regulated, fold change threshold 16×” value is 42; the “Number of significant features, Up-regulated, fold change threshold Any” value stood at 7416. For the same molecule, in experiment [2] (setting [8]), the “Number of significant features, Down-regulated, fold change threshold 1.3×” value is 2429; the “Number of significant features, Down-regulated, fold change threshold 2×” value is reported as 531; the “Number of significant features, Down-regulated, fold change threshold 4×” value amounted to 120; the “Number of significant features, Down-regulated, fold change threshold 8×” value came out at 43. In experiment [2] (setting [8]), the “Number of significant features, Down-regulated, fold change threshold 16×” value amounted to 16; the “Number of significant features, Down-regulated, fold change threshold Any” value is on record as 7667; the “Number of significant features, Up-regulated, fold change threshold 1.3×” value amounted to 1860; the “Number of significant features, Up-regulated, fold change threshold 2×” value was 232. For the same molecule, in experiment [2] (setting [8]), the “Number of significant features, Up-regulated, fold change threshold 4×” value was found to be 30; the “Number of significant features, Up-regulated, fold change threshold 8×” value is 7; the “Number of significant features, Up-regulated, fold change threshold 16×” value worked out at 1; the “Number of significant features, Up-regulated, fold change threshold Any” value was determined as 7346.
On to `CC(C)[C@@H](CC[C@@H](C)[C@H]1CC[C@H]2[C@@H]3[C@H](O)C[C@H]4C[C@@H](NCCCNCCCCN)CC[C@]4(C)[C@H]3CC[C@]12C)OS(=O)(=O)O` (single isomer, unassigned) [ENT-01, squalamine], for which, in experiment [3], the gastro-intestinal motility result is on record as “stimulates gastro-intestinal motility”. In addition, in experiment [4], the “mRNA levels for all of the genes of Table 3 after treatment” value was “significant increase”. Besides, the “overlap of genes downregulated in aged mice with genes up-regulated in response to treatment in old mice” value in experiment [2] (hypergeometric P<0.0001) is “overlapped significantly”. Besides, in experiment [1] (setting [9]), the “number of significant genes, treatment vs control (old)” value was determined as 383 genes and the “number of significant genes, treatment vs control (young)” value was 202 genes. In experiment [5], the “inhibition of NHE-3” value is recorded as “inhibit”.
